Source: patent US9428508B2, “2,4-diamino-6,7-dihydro-5H-pyrrolo[2,3]pyrimidine derivatives as FAK/Pyk2 inhibitors” (Centaurus BioPharma Co., Ltd., priority 2011, dated 2016)

Experiments:
PYK2 = PYK2 (Homo sapiens (Human), UniProt Q14289); experiment: Biochemical assay for PYK2 activity (LANCE TR-FRET, ULight-poly Glu,Ala,Tyr substrate); details: GST-tagged PYK2, 40 min reaction
Method: (§1) Biochemical Assay for FAK/Pyk2 Activity
(§2) GST-tagged FAK was purchased from Invitrogen (PV3832). GST-tagged PYK2 was purchased from Invitrogen (PV4567). The activity of FAK/PYK2 was measured by monitoring the phosphorylation of a fluorophore labeled ULight-poly Glu, Ala, Tyr (1:1:1) peptide substrate from Perkin Elmer (TRF0101) in the presence of ATP. The phosphorylated tyrosine residue was recognized by a LANCE Europium chelate labeled anti-phosphotyrosine (PY20) antibody from Perkin Elmer (AD0066). This brought the fluorophore and europium chelate in close proximity ([…]) that upon excitation at 320 nm by an Envision (PerkinElmer), energy can be transferred from the donor Europium chelate to the acceptor fluorophore. […] The strength of the signal was, therefore, directly proportional to the FAK/PYK2 activity.
(§3) To measure inhibitory activity of FAK/PYK2 inhibitors, compounds were first prepare as a 1 mM stock in 100% DMSO and 3-fold serial dilution was performed in a 96-well plate (Corning, 3897) to generate 12 different concentration of 100× stock. A 5 μl of 100× stock of each concentration was added to wells containing 95 μl of 1× reaction buffer (40 mM Tris, pH7.5, […], 1 mM DTT and 1 mM CHAPS) to generate 5× stock. Then 2 μl of 5× stock of each concentration was added to a 384 wells-OptiPlate (PerkinElmer, 6007299).
(§4) For PYK2, 5 μl of 2 nM PYK2 and 1.5 μl of 666 nM ULight-poly Glu, Ala, Tyr (1:1:1) peptide substrate, prepared in above reaction buffer, were added to each well. The reaction was initiated by adding 1.5 μl of 46.6 μM ATP. The reaction was allowed to proceed for 40 min before being quenched with 5 μl of 40 mM EDTA stop buffer prepared in 1×LANCE detection buffer (PerkinElmer, CR97-100).
(§5) Upon quenching of the reaction, 5 μl of 8 nM anti-phosphotyrosine antibody was added to each well and incubated for 60 minutes. The plate was measured using an Envision (PerkinElmer) based on the theory mentioned above.

FAK = FAK (Homo sapiens (Human), UniProt Q05397); experiment: Biochemical assay for FAK activity (LANCE TR-FRET, ULight-poly Glu,Ala,Tyr substrate); details: GST-tagged FAK, 120 min reaction
Sequence of FAK (Q05397 whole entry): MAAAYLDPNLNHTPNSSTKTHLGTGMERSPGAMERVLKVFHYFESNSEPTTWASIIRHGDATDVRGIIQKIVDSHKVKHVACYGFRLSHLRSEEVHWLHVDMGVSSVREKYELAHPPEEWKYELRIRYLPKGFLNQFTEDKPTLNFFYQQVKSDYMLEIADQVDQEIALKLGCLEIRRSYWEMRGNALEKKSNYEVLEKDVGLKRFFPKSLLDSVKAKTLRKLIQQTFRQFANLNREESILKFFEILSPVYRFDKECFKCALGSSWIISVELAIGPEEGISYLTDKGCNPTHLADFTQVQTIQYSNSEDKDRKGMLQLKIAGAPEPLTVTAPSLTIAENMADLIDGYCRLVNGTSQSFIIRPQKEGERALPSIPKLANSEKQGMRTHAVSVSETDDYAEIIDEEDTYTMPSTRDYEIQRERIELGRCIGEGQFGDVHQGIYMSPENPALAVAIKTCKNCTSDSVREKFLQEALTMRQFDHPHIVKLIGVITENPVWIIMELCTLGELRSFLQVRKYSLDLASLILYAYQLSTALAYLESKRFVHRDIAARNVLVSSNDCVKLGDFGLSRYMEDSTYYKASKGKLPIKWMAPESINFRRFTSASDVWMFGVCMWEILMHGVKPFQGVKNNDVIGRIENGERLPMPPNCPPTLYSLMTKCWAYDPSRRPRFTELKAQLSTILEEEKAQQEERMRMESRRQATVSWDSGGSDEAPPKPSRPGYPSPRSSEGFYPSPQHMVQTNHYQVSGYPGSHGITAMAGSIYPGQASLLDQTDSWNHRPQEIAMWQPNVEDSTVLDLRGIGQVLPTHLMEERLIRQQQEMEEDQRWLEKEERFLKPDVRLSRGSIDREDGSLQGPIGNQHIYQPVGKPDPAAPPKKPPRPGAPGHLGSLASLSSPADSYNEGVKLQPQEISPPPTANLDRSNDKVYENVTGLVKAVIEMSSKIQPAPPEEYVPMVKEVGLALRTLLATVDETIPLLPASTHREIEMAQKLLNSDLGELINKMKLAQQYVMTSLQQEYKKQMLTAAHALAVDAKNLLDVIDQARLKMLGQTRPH
Method: as §1, §2, §3
as §4, with “For FAK, 4” for “For PYK2, 5”, “of 2.5” for “of 2”, “nM FAK, 1 ul of 8 μg/μl BSA” for “nM PYK2”, “of 33.3” for “of 46.6”, “for 120” for “for 40”
as §5

Sequence of PYK2 (Q14289 whole entry): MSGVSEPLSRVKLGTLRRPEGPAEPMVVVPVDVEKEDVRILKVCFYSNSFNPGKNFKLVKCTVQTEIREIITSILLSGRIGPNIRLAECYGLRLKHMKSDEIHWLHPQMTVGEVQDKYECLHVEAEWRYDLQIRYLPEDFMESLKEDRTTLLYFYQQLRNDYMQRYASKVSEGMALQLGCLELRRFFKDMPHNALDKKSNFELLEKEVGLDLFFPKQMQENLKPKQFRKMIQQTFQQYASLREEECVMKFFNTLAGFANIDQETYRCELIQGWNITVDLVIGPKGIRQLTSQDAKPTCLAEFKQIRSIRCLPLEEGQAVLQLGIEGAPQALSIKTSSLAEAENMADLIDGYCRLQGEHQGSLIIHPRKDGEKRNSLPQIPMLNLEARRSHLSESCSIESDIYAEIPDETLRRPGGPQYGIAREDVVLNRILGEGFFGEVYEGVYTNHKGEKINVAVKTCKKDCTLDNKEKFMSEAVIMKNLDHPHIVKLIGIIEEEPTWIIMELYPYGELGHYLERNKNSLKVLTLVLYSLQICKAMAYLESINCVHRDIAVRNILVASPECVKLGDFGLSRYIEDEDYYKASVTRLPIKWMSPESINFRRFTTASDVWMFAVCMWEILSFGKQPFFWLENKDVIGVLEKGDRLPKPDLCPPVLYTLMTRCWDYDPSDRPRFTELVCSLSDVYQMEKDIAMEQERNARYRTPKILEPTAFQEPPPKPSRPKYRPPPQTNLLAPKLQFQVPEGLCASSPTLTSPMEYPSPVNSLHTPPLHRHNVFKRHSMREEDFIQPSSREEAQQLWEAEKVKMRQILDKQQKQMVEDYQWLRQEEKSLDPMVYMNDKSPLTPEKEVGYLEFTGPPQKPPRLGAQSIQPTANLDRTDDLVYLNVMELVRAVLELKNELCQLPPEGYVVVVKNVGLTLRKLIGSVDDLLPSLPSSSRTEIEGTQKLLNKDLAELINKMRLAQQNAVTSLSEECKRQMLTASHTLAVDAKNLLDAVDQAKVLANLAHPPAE

| Structure (SMILES) | IC50 (PYK2) | IC50 (FAK) |
| --- | --- | --- |
| COc1cc(N2CCOCC2)ccc1Nc1nc2c(c(Nc3ccccc3S(=O)(=O)Nc3ccccc3)n1)CCN2 [Example 51, 2-(2-(2-methoxy-4-morpholinophenylamino)-6,7-dihydro-5H-pyrrolo[2,3-d]pyrimidin-4-ylamino)-N-phenylbenzenesulfonamide] | < 500 nM | < 200 nM |
| CC(C)NS(=O)(=O)c1ccccc1Nc1nc(Nc2ccc(N3CCOCC3)cc2)nc2c1CCN2 [Example 52, N-isopropyl-2-(2-(4-morpholinophenylamino)-6,7-dihydro-5H-pyrrolo[2,3-d]pyrimidin-4-ylamino)benzenesulfonamide] | < 20 nM | < 20 nM |
| CC(C)NS(=O)(=O)c1ccccc1Nc1nc(Nc2ccc(N3CCOCC3)cc2F)nc2c1CCN2 [Example 55, 2-(2-(2-fluoro-4-morpholinophenylamino)-6,7-dihydro-5H-pyrrolo[2,3-d]pyrimidin-4-ylamino)-N-isopropylbenzenesulfonamide] | < 20 nM | < 20 nM |
| COc1nc(N2CCOCC2)ccc1Nc1nc2c(c(Nc3ccccc3S(=O)(=O)NC(C)C)n1)CCN2 [Example 56, N-isopropyl-2-(2-(2-methoxy-6-morpholino-3-ylamino)-6,7-dihydro-5H-pyrrolo[2,3-d]pyrimidin-4-ylamino)benzenesulfonamide] | < 50 nM | < 20 nM |
| CC(C)NS(=O)(=O)c1ccccc1Nc1nc(Nc2ccc(N3CCOCC3)nc2)nc2c1CCN2 [Example 57, N-isopropyl-2-(2-(6-morpholinopyridin-3-ylamino)-6,7-dihydro-5H-pyrrolo[2,3-d]pyrimidin-4-ylamino)benzenesulfonamide] | < 20 nM | < 20 nM |
| CC(C)NS(=O)(=O)c1ccccc1Nc1nc(Nc2ccc(N3CCOCC3)cn2)nc2c1CCN2 [Example 58, N-isopropyl-2-(2-(5-morpholinopyridin-2-ylamino)-6,7-dihydro-5H-pyrrolo[2,3-d]pyrimidin-4-ylamino)benzenesulfonamide] | < 50 nM | < 20 nM |
| CC(C)NS(=O)(=O)c1ccccc1Nc1nc(Nc2ccc(N3CCOCC3)cc2C(F)(F)F)nc2c1CCN2 [Example 60, N-isopropyl-2-(2-(4-morpholino-2-(trifluoromethyl)phenylamino)-6,7-dihydro-5H-pyrrolo[2,3-d]pyrimidin-4-ylamino)benzenesulfonamide] | > 1000 nM | < 500 nM |

More lines, now with the values ahead:

| IC50 (PYK2) | IC50 (FAK) | Structure (SMILES) |
| --- | --- | --- |
| < 20 nM | < 20 nM | CNC(=O)c1ccc(Nc2nc3c(c(Nc4ccccc4S(=O)(=O)NC(C)C)n2)CCN3)cc1 [Example 53, 4-(4-(2-(N-isopropylsulfamoyl)phenylamino)-6,7-dihydro-5H-pyrrolo[2,3-d]pyrimidin-2-ylamino)-N-methylbenzamide] |
| < 20 nM | < 20 nM | CC(C)NS(=O)(=O)c1ccccc1Nc1nc(Nc2ccc(CO)cc2)nc2c1CCN2 [Example 54, 2-(2-(4-(hydroxymethyl)phenylamino)-6,7-dihydro-5H-pyrrolo[2,3-d]pyrimidin-4-ylamino)-N-isopropylbenzenesulfonamide] |
| < 500 nM | < 1000 nM | CC(C)NS(=O)(=O)c1ccccc1Nc1nc(Nc2ccc(C(F)(F)F)cc2)nc2c1CCN2 [Example 61, N-isopropyl-2-(2-(4-(trifluoromethyl)phenylamino)-6,7-dihydro-5H-pyrrolo[2,3-d]pyrimidin-4-ylamino)benzenesulfonamide] |
| < 20 nM | < 20 nM | CC(C)NS(=O)(=O)c1ccccc1Nc1nc(Nc2ccc(C(=O)N(C)C)cc2)nc2c1CCN2 [Example 62, 4-(4-(2-(N-isopropylsulfamoyl)phenylamino)-6,7-dihydro-5H-pyrrolo[2,3-d]pyrimidin-2-ylamino)-N,N-dimethylbenzamide] |
| < 20 nM | < 20 nM | CC(=O)Nc1ccc(Nc2nc3c(c(Nc4ccccc4S(=O)(=O)NC(C)C)n2)CCN3)cc1 [Example 63, N-(4-(4-(2-(N-isopropylsulfamoyl)phenylamino)-6,7-dihydro-5H-pyrrolo[2,3-d]pyrimidin-2-ylamino)phenyl)acetamide] |
